Laboratory results as given in PMC10756536, “Functional expression and ligand identification of homo- and heteromeric Drosophila melanogaster CO2 receptors in the Xenopus laevis oocyte system” (PLOS ONE, 2023).

Key:
Assay type in all cases: cell-based
[1] = biological target: T1, Gr21a/Gr63a CO2 receptor (Gr63a) (Drosophila melanogaster, UniProt Q9VPT1+Q9VZL7); test: two-electrode voltage clamp, Xenopus oocytes, block of NaHCO3 current at […]
T1 construct: with Gr21a
T1 sequence (Q9VZL7 1-512): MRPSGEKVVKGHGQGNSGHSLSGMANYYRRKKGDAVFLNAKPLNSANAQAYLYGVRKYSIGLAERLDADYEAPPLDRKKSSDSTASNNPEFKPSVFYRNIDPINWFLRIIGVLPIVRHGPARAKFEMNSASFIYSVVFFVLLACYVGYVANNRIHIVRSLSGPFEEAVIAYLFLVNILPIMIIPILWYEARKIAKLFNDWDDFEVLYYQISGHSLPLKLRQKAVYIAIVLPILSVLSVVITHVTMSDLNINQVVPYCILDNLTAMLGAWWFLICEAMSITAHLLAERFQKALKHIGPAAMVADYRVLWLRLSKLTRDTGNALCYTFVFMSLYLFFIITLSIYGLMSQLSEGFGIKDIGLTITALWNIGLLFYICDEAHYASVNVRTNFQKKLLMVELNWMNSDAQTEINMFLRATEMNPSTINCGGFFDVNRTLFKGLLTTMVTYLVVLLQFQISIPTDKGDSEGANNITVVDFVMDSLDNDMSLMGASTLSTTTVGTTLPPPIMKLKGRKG
T1 sequence (Q9VPT1 1-447): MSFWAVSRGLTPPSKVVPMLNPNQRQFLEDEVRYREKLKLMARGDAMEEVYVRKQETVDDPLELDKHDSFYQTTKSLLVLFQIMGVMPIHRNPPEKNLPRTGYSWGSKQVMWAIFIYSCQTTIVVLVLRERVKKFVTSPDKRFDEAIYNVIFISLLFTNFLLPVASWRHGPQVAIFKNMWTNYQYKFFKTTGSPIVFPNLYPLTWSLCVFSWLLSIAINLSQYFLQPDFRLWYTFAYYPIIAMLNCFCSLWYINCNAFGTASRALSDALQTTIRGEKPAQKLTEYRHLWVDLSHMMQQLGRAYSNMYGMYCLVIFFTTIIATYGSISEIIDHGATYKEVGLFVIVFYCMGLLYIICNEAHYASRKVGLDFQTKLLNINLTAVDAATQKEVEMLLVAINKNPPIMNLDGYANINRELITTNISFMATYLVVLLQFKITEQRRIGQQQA

[2] = biological target: T1, Gr21a/Gr63a CO2 receptor (Gr63a); test: two-electrode voltage clamp, Xenopus oocytes, block of […] NaHCO3 current
[3] = biological target: T1, Gr21a/Gr63a CO2 receptor (Gr63a); test: two-electrode voltage clamp, Xenopus oocytes, agonist current at […]; details: read-out: % of 200 mM NHC response at 10 mM

| Structure (SMILES) | two-electrode voltage clamp, Xenopus oocytes, block of NaHCO3 current at 10 mM [1] | activation at 10000 µM [3] [%] | further results |
| --- | --- | --- | --- |
| CCCCCCO [1-hexanol] | Gr21/Gr63 were significantly inhibited by 1-octanol, isobutyraldehyde, 1-hexanol | – | – |
| CCCCCCCCO [1-octanol] | Gr21/Gr63 were significantly inhibited by 1-octanol, isobutyraldehyde, 1-hexanol | – | – |
| CC(C)=CCCC(C)CCO (stereo not drawn) [citronellol] | – | – | IC50 [2]: 5.1 ± 0.25 mM |
| CC(C)C=O [isobutyraldehyde] | Gr21/Gr63 were significantly inhibited by 1-octanol, isobutyraldehyde, 1-hexanol | – | – |
| COC(=O)C(C)=O [methyl pyruvate] | – | 29 ± 8 | – |
| CCCCCCN [n-hexylamine] | – | 64 ± 17 | – |
